Experimental data reported in ChEMBL document CHEMBL4402592, “Targeting Endoplasmic Reticulum α-Glucosidase I with a Single-Dose Iminosugar Treatment Protects against Lethal Influenza and Dengue Virus Infections” (J Med Chem, 2020).
Activity calls are given as the source filed them. The calls are words filed in the database; no cut-off is given here.

Legend:
Influenza A virus [1] = assay: Antiviral activity against Influenza A virus (A/Texas/36/1991(H1N1)) infected in BALB/c mouse assessed as median death time at 250 mg/kg, po administered via gavage as two doses at 8 hrs and 32 hrs post infection (reference value: 9 days); format: functional
Influenza A virus [2] = assay: Antiviral activity against Influenza A virus (A/Texas/36/1991(H1N1)) infected in BALB/c mouse assessed as increase in animal survival rate at 100 mg/kg, po administered via gavage starting at 8 hrs post-infection and continuing TID for 5 days; format: functional, organism-based
Mus musculus [3] = assay: In vivo inhibition of ERGlu1 in BALB/c mouse assessed as increase in tri-glucosylated FOS level in serum at 750 mg/kg, po administered via gavage as single dose and measured after 16 hrs by NP-HPLC analysis; format: functional, organism-based
dengue virus type 2 [4] = assay: (§1) Antiviral activity against Dengue virus 2 S221 infected in DENV antibody dependent enhancement AG129 mouse model assessed as reduction in IL-12/IL-23p40 level at 750 mg/kg, po administered via gavage as two doses at 36 hrs and 52 hrs post infection measured at 60 hrs post-infection by electrochemiluminescence based method; format: functional, organism-based
Influenza A virus [5] = assay: Antiviral activity against Influenza A virus (A/Texas/36/1991(H1N1)) infected in BALB/c mouse assessed as median death time at 500 mg/kg, po administered via gavage as two doses at 8 hrs and 32 hrs post infection (reference value: 9 days); format: functional
dengue virus type 2 [6] = assay: Antiviral activity against Dengue virus 2 S221 infected in DENV antibody dependent enhancement AG129 mouse model assessed as animal survival at 500 mg/kg, po administered via gavage as two doses at 36 and 52 hrs post infection (reference value: 4%); format: functional
Influenza A virus [7] = assay: Antiviral activity against Influenza A virus (A/Texas/36/1991(H1N1)) infected in BALB/c mouse assessed as animal survival at 750 mg/kg, po administered via gavage as single dose at 16 hrs post infection (reference value: 0%); format: functional
Influenza A virus [8] = assay: Antiviral activity against Influenza A virus (A/Texas/36/1991(H1N1)) infected in BALB/c mouse assessed as median death time at 500 mg/kg, po administered via gavage as three dosed at 8, 32 and 56 hrs post infection (reference value: 8 days); format: functional
dengue virus type 2 [9] = assay: as §1, with “single dose” for “two doses”, “36” for “36 hrs and 52”, “72” for “60”; format: functional, organism-based
Influenza A virus [10] = assay: Antiviral activity against Influenza A virus (A/Texas/36/1991(H1N1)) infected in BALB/c mouse assessed as median death time at 250 mg/kg, po administered via gavage as three dosed at 8, 32 and 56 hrs post infection (reference value: 8 days); format: functional
Influenza A virus [11] = assay: Antiviral activity against Influenza A virus (A/Texas/36/1991(H1N1)) infected in BALB/c mouse assessed as median death time at 500 mg/kg, po administered via gavage as single dose at 24 hrs post infection (reference value: 8.5 days); format: functional
Influenza A virus [12] = assay: Antiviral activity against Influenza A virus (A/Texas/36/1991(H1N1)) infected in BALB/c mouse assessed as animal survival at 500 mg/kg, po administered via gavage as single dose at 16 hrs post infection (reference value: 0%); format: functional
dengue virus type 2 [13] = assay: as §1, with “KC-GRO” for “IL-12/IL-23p40”, “single dose” for “two doses”, “36” for “36 hrs and 52”, “72” for “60”; format: functional, organism-based
[14] = Half life in BALB/c mouse at 5 mg/kg, iv or 200 mg/kg, po measured upto 48 hrs by LC-MS/MS analysis; format: ADME, organism-based; conditions: in vivo
dengue virus type 2 [15] = assay: Antiviral activity against Dengue virus 2 S221 infected in DENV antibody dependent enhancement AG129 mouse model assessed as animal survival at 375 mg/kg, po administered via gavage as two doses at 8 and 24 hrs post infection (reference value: 4%); format: functional
Mus musculus [16] = assay: In vivo inhibition of ERGlu2 in BALB/c mouse assessed as increase in mono-glucosylated FOS level in serum at 20 mg/kg, po administered via gavage starting at 8 hrs post-infection and continuing tid for 5 days and measured at 8 hrs post-final dose by NP-HPLC analysis; format: functional, organism-based
dengue virus type 2 [17] = assay: Antiviral activity against Dengue virus 2 S221 infected in DENV antibody dependent enhancement AG129 mouse model assessed as animal survival at 375 mg/kg, po administered via gavage as two doses at 16 and 32 hrs post infection (reference value: 4%); format: functional
dengue virus type 2 [18] = assay: as §1, with “TNF-lapha” for “IL-12/IL-23p40”; format: functional, organism-based
dengue virus type 2 [19] = assay: Antiviral activity against Dengue virus 2 S221 infected in DENV antibody dependent enhancement AG129 mouse model assessed as animal survival at 750 mg/kg, po administered via gavage as two doses at 48 and 64 hrs post infection (reference value: 4%); format: functional
dengue virus type 2 [20] = assay: as §1, with “IFN-gamma” for “IL-12/IL-23p40”, “72” for “60”; format: functional, organism-based
dengue virus type 2 [21] = assay: as §1, with “TNF-alpha” for “IL-12/IL-23p40”, “72” for “60”; format: functional, organism-based
dengue virus type 2 [22] = assay: Antiviral activity against Dengue virus 2 S221 infected in DENV antibody dependent enhancement AG129 mouse model assessed as animal survival at 375 mg/kg, po administered via gavage as two doses at 24 and 40 hrs post infection (reference value: 4%); format: functional
Influenza A virus [23] = assay: Antiviral activity against Influenza A virus (A/Texas/36/1991(H1N1)) infected in BALB/c mouse assessed as animal survival at 500 mg/kg, po administered via gavage as single dose at 24 hrs post infection (reference value: 0%); format: functional
Mus musculus [24] = assay: In vivo inhibition of ERGlu1 in BALB/c mouse assessed as increase in tri-glucosylated FOS level in spleen at 750 mg/kg, po administered via gavage as single dose and measured after 16 hrs by NP-HPLC analysis; format: functional, organism-based
dengue virus type 2 [25] = assay: as §1, with “single dose” for “two doses”, “36” for “36 hrs and 52”; format: functional, organism-based
Mus musculus [26] = assay: In vivo inhibition of ERGlu2 in BALB/c mouse assessed as increase in mono-glucosylated FOS level in lung at 100 mg/kg, po administered via gavage starting at 8 hrs post-infection and continuing tid for 5 days and measured at 8 hrs post-final dose by NP-HPLC analysis; format: functional, organism-based
Influenza A virus [27] = assay: Antiviral activity against Influenza A virus (A/Texas/36/1991(H1N1)) infected in BALB/c mouse assessed as median death time at 750 mg/kg, po administered via gavage as two doses at 8 hrs and 32 hrs post infection (reference value: 9 days); format: functional
Influenza A virus [28] = assay: Antiviral activity against Influenza A virus (A/Texas/36/1991(H1N1)) infected in BALB/c mouse assessed as median death time at 750 mg/kg, po administered via gavage as three dosed at 8, 32 and 56 hrs post infection (reference value: 8 days); format: functional

COCCCCCCCCCN1C[C@H](O)[C@@H](O)[C@H](O)[C@H]1CO.Cl
Time (Influenza A virus [1]): >14 days | Activity (Influenza A virus [2]): Active | inhibition (Mus musculus [3]): Active | Activity (dengue virus type 2 [4]): Active | Time (Influenza A virus [5]): >14 days | survival at 500 mg/kg (dengue virus type 2 [6]): 86% | survival at 750 mg/kg (Influenza A virus [7]): 70% | Time (Influenza A virus [8]): >14 days | Activity (dengue virus type 2 [9]): Active | Time (Influenza A virus [10]): 9.5 days | Time (Influenza A virus [11]): 11 days | survival at 500 mg/kg (Influenza A virus [12]): 40% | Activity (dengue virus type 2 [13]): Active | half-life [14]: 5 h | survival at 375 mg/kg (dengue virus type 2 [15]): 82% | inhibition (Mus musculus [16]): Active | survival at 375 mg/kg (dengue virus type 2 [17]): 100% | Activity (dengue virus type 2 [18]): Active | survival at 750 mg/kg (dengue virus type 2 [19]): 100% | Activity (dengue virus type 2 [20]): Active | Activity (dengue virus type 2 [21]): Active | survival at 375 mg/kg (dengue virus type 2 [22]): 100% | survival at 500 mg/kg (Influenza A virus [23]): 30% | inhibition (Mus musculus [24]): Active | Activity (dengue virus type 2 [25]): Active | inhibition (Mus musculus [26]): Active | Time (Influenza A virus [27]): >14 days | Time (Influenza A virus [28]): >14 days
